System: central nervous system
Assay: CCl4 central nervous system toxicity in rats
Assay type: in vivo, rat
Details: pretreatment

## Cc1c(C)c2c(c(C)c1OC(=O)CCC(=O)O)CC[C@@](C)(CCC[C@H](C)CCC[C@H](C)CCCC(C)C)O2 [alpha-TS, d-alpha-tocopheryl succinate]
  recovery from acute CNS toxic manifestations of CCl4: several days before rats which are not treated with alpha-TS
